# Assays:
# [1] = AM_Perm (artificial membrane permeability); assay type: in vitro ADME
# WT PfPKG [2] = molecular target: T1, WT PfPKG (Plasmodium falciparum, UniProt Q8I719); set-up: species or system P. falciparum; conditions: for LE: ligand efficiency; for LLE: lipophilic ligand efficiency
# T1 construct: recombinant full length wild type (WT) PfPKG; His6 (N); host or cells: E. coli BL21
# Excerpt: A scoring system was developed to further prioritize interesting compounds. […] Three points were given to compounds that inhibit HuPKGIα at least 3 orders of magnitude less than WT PfPKG. […] We also considered how well the compounds bind to the target by taking into account two physicochemical properties: ligand efficiency (LE, 1.37 x pIC50/number heavy atoms) is a characterization of a compound’s efficiency on a per-heavy-atom basis[51] and lipophilic ligand efficiency (LLE, pIC50 – clogP) is a parameter used in drug design which links potency and lipophilicity in an attempt to estimate drug-likeness[52]. The ClogP coefficient measures lipophilicity. Values of LE ≥ 0.3 and LLE ≥ 5 are typically accepted as good starting points for optimizations efforts.
# WT PfPKG [3] = molecular target: T1, WT PfPKG; experiment: Kinase Glo enzymatic assay, recombinant WT PfPKG; assay type: biochemical, P. falciparum
# Protocol: To identify new PKG inhibitor scaffolds, the 1.7 million GlaxoSmithKline Full Diversity collection was tested at a single final concentration of 10 μM against recombinant full length wild type (WT) PfPKG using a Kinase Glo-based assay (Promega). The results gave a robust Z′ mean value of 0.85. At an average statistical cut-off of 30%, 20,174 primary hits were identified with an overall hit rate of 1%. Fresh samples of these primary hits were tested in duplicate against WT PfPKG and also against human PKGIα (HuPKGIα) (Supplementary Fig. 1) at a final concentration of 10 μM (confirmation step).
# (§1) Protein production was outsourced to the Division of Signal Transduction Therapy, University of Dundee. Briefly, the pTRChis expression vectors (Invitrogen) containing an N-terminally His6-tagged PfPKG wildtype and T618Q were used to transform BL21 cells (protocol adapted from[23]). The cells were grown at 37 °C until the OD600 was 0.4–0.6 then the temperature was reduced to 15 °C and the cells were induced with 250 µM IPTG and grown for a further 16–18 hours before harvesting. The His6-PfPKG was purified on Cobalt agarose followed by gel filtration and the protein was dialysed into 25 mM Hepes pH 7.5, 0.1 mM EGTA, 150 mM NaCl, 50% glycerol and 2 mM DTT.
# (§2) Initial optimization of the PKG assay was performed manually in 384-well plates and analysed with GraFit 7. The buffer for all assays was 25 mM HEPES pH 7.3 (GIBCO), 10 mM MgCl2 (Sigma), 2 mM DTT (Sigma), 0.01 mM cGMP (Sigma), 0.1 mg/ml BSA (Ambion). Enzymatic activity was tested using a luminescence-based kit (Promega KinaseGlo). Addition of the first reagent depletes the unused ATP and addition of the second reagent converts ADP (product of the kinase reaction) to ATP, which is then measured through a luciferin/luciferase reaction. The amount of luminescence is directly proportional to ATP turnover by the kinase. The kit was chosen because it can be miniaturized to small volumes (i.e. 4 µl) in 1536-well plates, for use in HTS.
# (§3) We used PKA peptide substrate (SCP0212, Sigma-Aldrich) for WT and TQ PfPKG, dissolved in milliQ water at a final concentration of 5 mM, and Long S6 peptide substrate (produced at the University of Dundee, sequence […]) for HuPKGIα, dissolved in water at a final concentration of 30 mM.
# (§4) We calculated the Michaelis-Menten (Km) constant for ATP and peptide substrate (PKA or Long S6) for all enzymes using GraphPad Prism (Supplementary Figs 2 and 3 and Supplementary Table 3). In order to identify different types of PKG inhibitors, including ATP competitive or non-competitive inhibitors, as well as inhibitors that bind to the peptide substrate pocket, we performed all assays using ATP and peptide substrate at a concentration equal to the Km. We also determined enzyme activity by calculating ATP turnover (Kcat) over the Km (Supplementary Table 3). The Kcat was calculated as (Vmax*slope)/[E] where Vmax is the maximum velocity and [E] is the concentration of the enzyme.
# (§5) The plates containing the compounds were prepared at GSK in Upper Providence or Stevenage. Compounds were tested at a single final concentration of 10 µM or in a dose response with a range of concentrations starting from 100 μM to 1.6 nM (1 in 3 serial dilutions). Compounds were dispensed in the plates at the required concentration in a 40 nl volume. All plates (1536-well white Greiner) contained 40 nl of DMSO in lanes 11 and 12 (control 1, 100% enzyme activity) and were empty in lanes 35 and 36 (control 2, 0% enzyme activity). The plates were removed from −20 °C 1 hour before starting the assay. Using a Multidrop Combi dispenser (Thermo Scientific), 2 µl of the buffer containing ATP and the substrate were added to all wells then 2 µl of buffer only were added to column 35 and 36. Finally 2 µl of buffer containing the enzyme were dispensed in all the plate wells except for lanes 35 and 36. […]
# [4] = ChromlogD (lipophilicity)
# TQ PfPKG (PfPKG_T618Q) = molecular target: T2, TQ PfPKG (PfPKG_T618Q) (Plasmodium falciparum, UniProt Q8I719, T618Q); experiment: Kinase Glo enzymatic assay, gatekeeper mutant TQ PfPKG; assay type: biochemical, P. falciparum
# T2 construct: His6 (N); host or cells: E. coli BL21
# Protocol: Taking advantage of the availability of more than 3,000 thiazole derivatives among the GSK compound collection, cluster 3 was thoroughly investigated for potent and selective inhibitors of WT PfPKG. […] We explored the binding mode by also testing compounds on the gatekeeper mutant enzyme TQ PfPKG. […] These two time points were chosen to give an indication of the speed of kill of the compounds. […] A preliminary safety test was performed on human AuroraB and LCK kinases which often underpin toxicity issues. […] Further assays for compound characterization included determination of solubility and cytotoxicity (HepG2 inhibition). Thiazoles have been previously identified as human BRaf inhibitors that are used to treat melanoma.
# as §1, §2, §3, §4
# as §5, with “36.” for “36. Finally 2 µl of buffer containing the enzyme were dispensed in all the plate wells except for lanes 35 and 36.”
# PI3KD = PI3KD (Homo sapiens, UniProt O00329); experiment: Preliminary safety test on human PI3KD kinase; assay type: biochemical
# [5] = WT PfPKG (μM), recombinant WT PfPKG
# Chain of PI3KD (O00329 whole entry): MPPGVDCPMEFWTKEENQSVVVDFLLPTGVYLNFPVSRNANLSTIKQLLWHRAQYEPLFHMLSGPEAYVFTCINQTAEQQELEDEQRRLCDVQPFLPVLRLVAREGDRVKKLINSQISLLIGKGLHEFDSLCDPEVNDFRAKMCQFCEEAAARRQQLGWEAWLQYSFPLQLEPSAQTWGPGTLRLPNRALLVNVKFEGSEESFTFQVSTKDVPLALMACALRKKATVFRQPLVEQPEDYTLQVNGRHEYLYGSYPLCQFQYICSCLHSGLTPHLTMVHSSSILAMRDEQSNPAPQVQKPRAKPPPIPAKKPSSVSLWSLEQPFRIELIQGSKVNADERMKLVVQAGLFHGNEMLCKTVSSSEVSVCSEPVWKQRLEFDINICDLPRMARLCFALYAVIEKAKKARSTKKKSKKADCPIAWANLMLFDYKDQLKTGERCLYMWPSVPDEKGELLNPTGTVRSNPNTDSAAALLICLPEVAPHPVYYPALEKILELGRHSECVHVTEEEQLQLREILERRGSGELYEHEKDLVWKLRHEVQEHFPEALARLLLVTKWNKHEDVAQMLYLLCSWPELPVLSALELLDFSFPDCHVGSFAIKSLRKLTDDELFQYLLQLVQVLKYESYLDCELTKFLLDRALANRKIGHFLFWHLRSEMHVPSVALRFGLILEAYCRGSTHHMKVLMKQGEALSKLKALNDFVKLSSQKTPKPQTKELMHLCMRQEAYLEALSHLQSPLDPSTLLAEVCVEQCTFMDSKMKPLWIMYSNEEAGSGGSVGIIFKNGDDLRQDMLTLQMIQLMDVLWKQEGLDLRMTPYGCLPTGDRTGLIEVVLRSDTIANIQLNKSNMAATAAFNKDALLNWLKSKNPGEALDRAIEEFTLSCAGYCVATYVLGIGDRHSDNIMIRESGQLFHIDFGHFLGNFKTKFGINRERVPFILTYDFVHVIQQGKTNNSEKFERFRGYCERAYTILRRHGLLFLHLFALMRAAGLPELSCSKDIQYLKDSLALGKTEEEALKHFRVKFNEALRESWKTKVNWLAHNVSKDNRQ
# Chain of PI3KD (P27986 whole entry partner): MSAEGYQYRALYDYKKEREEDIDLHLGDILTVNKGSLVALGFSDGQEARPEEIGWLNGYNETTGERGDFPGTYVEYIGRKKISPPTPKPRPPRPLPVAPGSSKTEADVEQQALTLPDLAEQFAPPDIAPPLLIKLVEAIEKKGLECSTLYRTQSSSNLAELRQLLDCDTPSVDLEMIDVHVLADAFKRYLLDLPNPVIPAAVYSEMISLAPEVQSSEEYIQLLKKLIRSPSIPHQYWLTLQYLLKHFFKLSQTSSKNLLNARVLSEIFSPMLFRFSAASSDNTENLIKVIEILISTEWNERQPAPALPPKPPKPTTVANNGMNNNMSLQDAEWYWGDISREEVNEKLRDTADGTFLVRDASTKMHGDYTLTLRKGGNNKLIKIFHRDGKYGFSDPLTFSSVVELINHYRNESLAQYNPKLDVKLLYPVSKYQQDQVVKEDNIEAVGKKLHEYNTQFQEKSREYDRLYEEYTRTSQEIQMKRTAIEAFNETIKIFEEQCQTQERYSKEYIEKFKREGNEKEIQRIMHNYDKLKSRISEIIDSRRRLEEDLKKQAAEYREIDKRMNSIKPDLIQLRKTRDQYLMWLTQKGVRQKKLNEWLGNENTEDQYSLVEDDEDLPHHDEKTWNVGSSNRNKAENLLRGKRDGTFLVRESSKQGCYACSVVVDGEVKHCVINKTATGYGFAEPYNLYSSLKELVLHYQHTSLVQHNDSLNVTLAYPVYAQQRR
# T1 sequence (Q8I719 whole entry): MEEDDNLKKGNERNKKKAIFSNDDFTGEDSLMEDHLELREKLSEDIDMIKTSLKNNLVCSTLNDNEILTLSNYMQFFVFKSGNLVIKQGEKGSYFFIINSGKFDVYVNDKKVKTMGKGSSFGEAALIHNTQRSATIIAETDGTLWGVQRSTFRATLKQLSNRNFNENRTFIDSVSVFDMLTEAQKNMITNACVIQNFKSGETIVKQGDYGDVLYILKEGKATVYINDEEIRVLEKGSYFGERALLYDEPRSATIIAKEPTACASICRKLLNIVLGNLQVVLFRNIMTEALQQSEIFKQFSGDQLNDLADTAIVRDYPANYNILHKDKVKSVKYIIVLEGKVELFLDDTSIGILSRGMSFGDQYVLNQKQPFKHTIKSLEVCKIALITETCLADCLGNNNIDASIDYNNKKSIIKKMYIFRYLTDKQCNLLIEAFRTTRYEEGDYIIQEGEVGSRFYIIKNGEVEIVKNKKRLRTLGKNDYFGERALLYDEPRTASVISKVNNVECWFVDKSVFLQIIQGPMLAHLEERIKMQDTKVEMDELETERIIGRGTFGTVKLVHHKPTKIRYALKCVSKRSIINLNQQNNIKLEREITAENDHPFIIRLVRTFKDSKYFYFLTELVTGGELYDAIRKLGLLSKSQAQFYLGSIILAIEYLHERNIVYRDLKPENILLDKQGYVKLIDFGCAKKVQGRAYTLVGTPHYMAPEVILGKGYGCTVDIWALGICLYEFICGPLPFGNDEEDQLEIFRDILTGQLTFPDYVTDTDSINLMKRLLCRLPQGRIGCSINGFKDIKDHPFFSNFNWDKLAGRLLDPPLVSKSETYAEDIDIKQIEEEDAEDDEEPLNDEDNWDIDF
# T2 sequence (Q8I719 whole entry T618Q): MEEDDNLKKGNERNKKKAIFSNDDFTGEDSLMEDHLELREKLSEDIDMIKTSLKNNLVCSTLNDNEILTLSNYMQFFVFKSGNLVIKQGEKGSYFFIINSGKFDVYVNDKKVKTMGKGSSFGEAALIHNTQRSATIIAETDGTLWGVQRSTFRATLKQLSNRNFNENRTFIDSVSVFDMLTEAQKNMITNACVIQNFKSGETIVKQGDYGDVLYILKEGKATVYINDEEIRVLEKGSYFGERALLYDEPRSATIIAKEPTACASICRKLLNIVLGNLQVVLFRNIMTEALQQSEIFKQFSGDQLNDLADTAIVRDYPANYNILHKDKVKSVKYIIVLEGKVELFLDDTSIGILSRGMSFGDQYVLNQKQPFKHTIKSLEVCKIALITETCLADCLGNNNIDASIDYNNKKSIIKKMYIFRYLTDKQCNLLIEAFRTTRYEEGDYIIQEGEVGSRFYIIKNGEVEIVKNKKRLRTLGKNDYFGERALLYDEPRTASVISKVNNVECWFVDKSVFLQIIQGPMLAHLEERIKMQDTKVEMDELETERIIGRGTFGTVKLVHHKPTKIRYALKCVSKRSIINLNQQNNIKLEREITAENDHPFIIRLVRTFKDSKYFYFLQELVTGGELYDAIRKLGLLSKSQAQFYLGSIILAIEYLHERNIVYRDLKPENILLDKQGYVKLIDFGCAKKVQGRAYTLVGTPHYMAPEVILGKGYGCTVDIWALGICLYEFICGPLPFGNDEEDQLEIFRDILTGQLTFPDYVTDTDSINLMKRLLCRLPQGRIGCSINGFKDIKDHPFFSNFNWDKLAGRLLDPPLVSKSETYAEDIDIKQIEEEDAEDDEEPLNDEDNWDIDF
SMILES,AM Perm [1] [nm/s],LE (WT PfPKG [2]),LLE (WT PfPKG [2]),IC50 (WT PfPKG [3]; [5]) [µM],chromatographic logD [4],IC50 (TQ PfPKG (PfPKG_T618Q)) [nM],IC50 (PI3KD) [µM],"IC50 (WT PfPKG [3]; IC50 (WT PfPKG activity), Figure 3, most scored compound of each cluster and singletons) [µM]"
COc1ccc(-c2c(-c3cccc(C(=O)N4CCN(C)CC4)c3)oc3ncnc(N)c23)cc1 [Compound 7],324,0.33,5.4,0.01,2.6,14100,39.8,
COc1cc(CS(C)(=O)=O)ccc1Nc1nc(Nc2cc(F)ccc2C(N)=O)c2cc[nH]c2n1 [Compound 10],77,0.3,4.4,0.05,3.3,24.8,> 50.1,
O=C(c1cccc(OCc2cccnc2)c1)N1CCc2sccc2C1CN1CCCCC1 (centres unmarked) [Compound 14],551,0.32,2.9,0.036,3.9,473,> 50.1,
CNS(=O)(=O)c1cccc(Nc2ccnc(Nc3cccc(S(=O)(=O)NC)c3)n2)c1 [Compound 6],127,0.33,4.5,0.07,3.4,188,2.5,
O=C(N[C@@H](CO)c1ccccc1)c1ccc2cncc(-c3cn[nH]c3)c2n1 [Compound 11],86,0.36,4.9,0.094,1.9,1000,7.9,
COc1cccc(Nc2nc(-c3ccncc3)cc(N3CCN(C)CC3)n2)c1 [Compound 9],599,0.37,3.9,0.027,3.6,10000,> 50.1,
Nc1ccc2c(-c3ccncc3)c(-c3ccc(Cl)c(O)c3)[nH]c2n1 [Compound 15],110,0.44,4.9,0.022,2.1,24000,10,
NCCNCc1ccc(-c2cc3ccncc3cc2OC2CCNCC2)s1 [Compound 12],12,0.33,4.7,0.324,-0.36,851,,
Cc1ccc(S(C)(=O)=O)cc1Nc1nccc(-c2sc(CC(N)=O)nc2-c2ccccc2)n1 [Compound 3],367,0.33,6.0,0.013,3.3,19100,0.0794,
CC(C)(CN)c1cc(-c2ccc(Cl)c(O)c2)c(-c2ccncc2)o1 [Compound 4],531,0.5,5.5,0.0017,3.1,36700,> 50.1,0.002
CCn1cc(-c2ccncn2)c(-c2cccc(NS(=O)(=O)c3cc(F)ccc3F)c2)n1 [Compound 2],501,0.33,4.2,0.041,4,> 100000,> 50.1,
CNCCOc1cnc(-c2ccoc2C)c(-c2ccc3cnccc3c2)c1 [Compound 13],431,0.4,5.1,0.007,2.1,1300,> 50.1,
Nc1nc(Nc2cccc3cnccc23)nn1C(=O)C1CCCCC1 [Compound 16],339,0.4,3.6,0.09,4.6,1800,> 50.1,
CCn1c(-c2nonc2N)nc2c(-c3ccccc3)ncc(CN(C)C3CCN(C)CC3)c21 [Compound 5],229,0.3,4.3,0.039,3.7,21900,> 50.1,
